Earlier results in patent US20080139497A1, “Use of ATP in controlled regional reperfusion as treatment during acute myocardial infarction” (priority 2006, published 2008).
Like-named read-outs stand apart in the source and are kept apart here.

How the values were obtained:
[1] = system: cultured myocardial cells; details: addition to cultured myocardial cells
[2] = system: isolated muscle fibers; details: externally added
[3] = small amount, exogenously administered, hypoxic myocardium
[4] = injected into isolated nonperfused hypothermic dog hearts
[5] = after acute renal failure in mini-pigs
[6] = after acute renal failure in rats
[7] = added to the perfusate
[8] = from a toxic injury
[9] = in man
[10] = infusion; after hemorrhagic shock, severe burns, sepsis-peritonitis, post-ischemic hepatic failure, endotoxin shock
[11] = following normothermic ischemia, infusion of low dose
[12] = infused into left coronary artery, patients with coronary artery disease
[13] = treatment after experimental acute myocardial ischemia
[14] = following prolonged ischemia, infusion

Molecule: Nc1ncnc2c1ncn2[C@@H]1O[C@H](CO)[C@@H](O)[C@H]1O [adenosine]
- ATP content [1]: neither adenosine nor AMP produced this effect

Molecule: Nc1ncnc2c1ncn2[C@@H]1O[C@H](COP(=O)(O)OP(=O)(O)OP(=O)(O)O)[C@@H](O)[C@H]1O [ATP, adenosine 5′-triphosphate]
- contraction [2]: induced contraction
- ATP and total adenine nucleotide content [3]: increased the ATP and total adenine nucleotide content
- ATP content [1]: caused an increase in ATP content
- nucleotide and phosphocreatine levels [4]: improved nucleotide and phosphocreatine levels

Molecule: Nc1ncnc2c1ncn2[C@@H]1O[C@H](COP(=O)(O)O)[C@@H](O)[C@H]1O [AMP]
- ATP and total adenine nucleotide content [3]: not
- ATP content [1]: neither adenosine nor AMP produced this effect

Molecule: ATP-MgCl2
- recovery of renal function [5]: accelerate the recovery of renal function
- recovery of renal function [6]: accelerate the recovery of renal function
- salvage of kidneys subjected to warm ischemia [7]: could be salvaged
- renal recovery [8]: effective in hastening renal recovery
- safety and hemodynamic response [9]: has been demonstrated
- ornithine metabolism and tissue lactate level (during hemorrhagic shock, exogenously administered): can reverse the inhibition of ornithine metabolism and the change in tissue lactate level
- tissue lactate production (infused): decreased tissue lactate production
- survival of animals [10]: proved beneficial for the survival of animals
- myocardial recovery [11]: improved myocardial recovery
- myocardial oxygen consumption [12]: reduction of myocardial oxygen consumption
- protection of the heart from ischemia [13]: protects the heart from the adverse effects of ischemia
- myocardial performance [14]: can improve myocardial performance

Molecule: Nc1ncnc2c1ncn2[C@@H]1O[C@H](COP(=O)(O)OP(=O)(O)O)[C@@H](O)[C@H]1O [ADP]
- ATP and total adenine nucleotide content [3]: not
